Assay results published in paper PMC6691788, “Design and synthesis of phthalazine-based compounds as potent anticancer agents with potential antiangiogenic activity via VEGFR-2 inhibition” (Journal of Enzyme Inhibition and Medicinal Chemistry, 2019).

Assays:
M14 = test: NCI 60 cell panel SRB screen; format: cell-based; settings: Homo sapiens; for activity at 10 µM: M14, read-out: percent cell growth promotion
SNB-75 = test: NCI 60 cell panel SRB screen; format: cell-based; settings: Homo sapiens; for activity at 10 µM: SNB-75, single dose 10 μM, read-out: percent cell growth promotion
786-0 = test: NCI 60 cell panel SRB screen; format: cell-based; settings: Homo sapiens; for activity at 10 µM: 786-0, single dose 10 μM, read-out: percent cell growth promotion
BT-549 = test: NCI 60 cell panel SRB screen; format: cell-based; settings: Homo sapiens; for activity at 10 µM: BT-549, read-out: percent cell growth promotion
MCF7 = test: NCI 60 cell panel SRB screen; format: cell-based; settings: Homo sapiens; for activity at 10 µM: MCF7, read-out: percent cell growth promotion
IGROV1 = test: NCI 60 cell panel SRB screen; format: cell-based; settings: Homo sapiens, IGROV-1; for activity at 10 µM: IGROV1, single dose 10 μM, read-out: percent cell growth promotion
UO-31 = test: NCI 60 cell panel SRB screen; format: cell-based; settings: Homo sapiens; for activity at 10 µM: UO-31, single dose 10 μM, read-out: percent cell growth promotion
UACC-62 = test: NCI 60 cell panel SRB screen; format: cell-based; settings: for activity at 10 µM: UACC-62, read-out: percent cell growth promotion
SF-539 = test: NCI 60 cell panel SRB screen; format: cell-based, human; settings: for percent cell growth promotion: SF-539, single dose 10 μM
SK-MEL-2 = test: NCI 60 cell panel SRB screen; format: cell-based; settings: for percent cell growth promotion: SK-MEL-2, single dose 10 μM
EKVX = test: NCI 60 cell panel SRB screen; format: cell-based, human; settings: for percent cell growth promotion: single dose 10 μM
full NCI 60 cell panel = test: NCI 60 cell panel SRB screen, whole panel; format: cell-based, human; settings: Homo sapiens, 60 cell, NCI 5-log dose, full 60 cell panel; read-out: GI50 values, range over the tested cell lines
[1] = Homo sapiens, SF-539, 5 log dose

SMILES: c1ccc(N2CCN(c3nncc4ccccc34)CC2)nc1 [Compound 8d, 1–(4-(Pyridin-2-yl)piperazin-1-yl)phthalazine]
- activity at 10 µM (M14): 102%
- activity at 10 µM (SNB-75): 105%
- activity at 10 µM (786-0): 104%
- activity at 10 µM (BT-549): 104%
- activity at 10 µM (MCF7): 105%
- activity at 10 µM (IGROV1): 116%
- activity at 10 µM (UO-31): 96%
- activity at 10 µM (UACC-62; Homo sapiens): 99.6%

SMILES: CCOC(=O)N1CCN(c2nnc(C)c3ccccc23)CC1 [Compound 8f, Ethyl 4–(4-methylphthalazin-1-yl)piperazine-1-carboxylate]
- activity at 10 µM (M14): 104%
- activity at 10 µM (SNB-75): 101%
- activity at 10 µM (786-0): 93.3%
- activity at 10 µM (BT-549): 66.7%
- activity at 10 µM (MCF7): 92.1%
- activity at 10 µM (IGROV1): 109%
- activity at 10 µM (UO-31): 92.2%
- activity at 10 µM (UACC-62; Homo sapiens): 109%

SMILES: Cc1nnc(N2CCN(c3ccccc3)CC2)c2ccccc12 [Compound 8g, 1-Methyl-4–(4-phenylpiperazin-1-yl)phthalazine]
- activity at 10 µM (M14): 94.8%
- activity at 10 µM (SNB-75): 98.1%
- activity at 10 µM (786-0): 100%
- activity at 10 µM (BT-549): 75.5%
- activity at 10 µM (MCF7): 96.7%
- activity at 10 µM (IGROV1): 112%
- activity at 10 µM (UO-31): 108%
- activity at 10 µM (UACC-62; Homo sapiens): 110%

SMILES: Cc1nnc(N2CCN(c3ccccc3F)CC2)c2ccccc12 [Compound 8h, 1–(4-(2-Fluorophenyl)piperazin-1-yl)-4-methylphthalazine]
- activity at 10 µM (M14): 95%
- activity at 10 µM (SNB-75): 109%
- activity at 10 µM (786-0): 90.2%
- activity at 10 µM (MCF7): 86.5%
- activity at 10 µM (IGROV1): 109%
- activity at 10 µM (UO-31): 95.9%
- activity at 10 µM (UACC-62; Homo sapiens): 99.2%

SMILES: Cc1nnc(N2CCN(c3ccccn3)CC2)c2ccccc12 [Compound 8i, 1-Methyl-4–(4-(pyridin-2-yl)piperazin-1-yl)phthalazine]
- activity at 10 µM (M14): 98.6%
- activity at 10 µM (SNB-75): 114%
- activity at 10 µM (786-0): 92.4%
- activity at 10 µM (MCF7): 89.1%
- activity at 10 µM (IGROV1): 112%
- activity at 10 µM (UO-31): 102%
- activity at 10 µM (UACC-62; Homo sapiens): 101%

SMILES: O=C(Nc1ccccc1)Nc1ccc(Oc2nnc(Cl)c3ccccc23)cc1 [Compound 13a, 1–(4-(4-Chlorophthalazin-1-yloxy)phenyl)-3-phenylurea]
- GI50 (SF-539; [1]): 2.81 µM
- IC (TGI) (SF-539; [1]): 6.4 µM
- CC50 (SF-539; Homo sapiens, SF-539, 5 log dose, 48 h, read-out: LC50 (the source's name)): 14.6 µM
- percent cell growth promotion (SF-539): -22.02%
- GI50 (M14; M14): 6.15 µM
- IC (TGI) (M14; M14, read-out: TGI): > 25 µM
- activity at 10 µM (M14): 46.2%
- CC50 (M14; M14, 5 log dose, 48 h, read-out: LC50 (the source's name)): > 25 µM
- GI50 (SK-MEL-2; Homo sapiens): 3.9 µM
- IC (TGI) (SK-MEL-2; Homo sapiens, read-out: TGI): 13.2 µM
- CC50 (SK-MEL-2; Homo sapiens, SK-MEL-2, 5 log dose, 48 h, read-out: LC50 (the source's name)): > 25 µM
- percent cell growth promotion (SK-MEL-2): 9.53%
- GI50 (SNB-75; SNB-75, 5 log dose): 1.08 µM
- IC (TGI) (SNB-75; SNB-75, 5 log dose): 5.9 µM
- LC50 (concentration killing 50% of cells) (SNB-75; SNB-75, 5 log dose, 48 h): 21.3 µM
- activity at 10 µM (SNB-75): -42%
- GI50 (EKVX; Homo sapiens, 5 log dose): 2.31 µM
- IC (TGI) (EKVX; Homo sapiens, 5 log dose): 12.1 µM
- LC50 (EKVX; Homo sapiens, 5 log dose, 48 h): > 25 µM
- percent cell growth promotion (EKVX): 29.96%
- GI50 (786-0; 786-0, 5 log dose): 3.6 µM
- IC (TGI) (786-0; 786-0, 5 log dose): 8.18 µM
- CC50 (786-0; 786-0, 5 log dose, 48 h, read-out: LC50 (the source's name)): 18.6 µM
- activity at 10 µM (786-0): 38.2%
- GI50 (BT-549; BT-549): 3.06 µM
- IC (TGI) (BT-549; BT-549, read-out: TGI): 10.8 µM
- activity at 10 µM (BT-549): 47.7%
- CC50 (BT-549; BT-549, 5 log dose, 48 h, read-out: LC50 (the source's name)): > 25 µM
- GI50 (full NCI 60 cell panel): 0.15 to 8.41 µM
- GI50 (MCF7; MCF7): 1.32 µM
- IC (TGI) (MCF7; MCF7, read-out: TGI): 6.32 µM
- activity at 10 µM (MCF7): -4.15%
- CC50 (MCF7; MCF7, 5 log dose, 48 h, read-out: LC50 (the source's name)): 20.6 µM
- GI50 (IGROV1; IGROV1, 5 log dose): 3.32 µM
- IC (TGI) (IGROV1; IGROV1, 5 log dose): 7.92 µM
- CC50 (IGROV1; IGROV1, 5 log dose, 48 h, read-out: LC50 (the source's name)): 18.9 µM
- activity at 10 µM (IGROV1): 37.2%
- GI50 (UO-31; UO-31, 5 log dose): 3.98 µM
- IC (TGI) (UO-31; UO-31, 5 log dose): 19.6 µM
- CC50 (UO-31; UO-31, 5 log dose, 48 h, read-out: LC50 (the source's name)): > 25 µM
- activity at 10 µM (UO-31): 34.9%
- GI50 (UACC-62; Homo sapiens, UACC-62): 6.84 µM
- activity at 10 µM (UACC-62; Homo sapiens): 41.3%
- CC50 (UACC-62; Homo sapiens, UACC-62, 5 log dose, 48 h, read-out: LC50 (the source's name)): > 25 µM
- TGI (UACC-62; UACC-62, 5 log dose): > 25 µM

SMILES: O=C(Nc1ccc(Cl)cc1)Nc1ccc(Oc2nnc(Cl)c3ccccc23)cc1 [Compound 13b, 1–(4-Chlorophenyl)-3–(4-(4-chlorophthalazin-1-yloxy)phenyl)urea]
- percent cell growth promotion (SF-539): 84.86%
- activity at 10 µM (M14): 103%
- percent cell growth promotion (SK-MEL-2): 93.58%
- activity at 10 µM (SNB-75): 74%
- percent cell growth promotion (EKVX): 62.48%
- activity at 10 µM (786-0): 114%
- activity at 10 µM (BT-549): 96.8%
- activity at 10 µM (MCF7): 86.2%
- activity at 10 µM (IGROV1): 79.2%
- activity at 10 µM (UO-31): 53.9%
- activity at 10 µM (UACC-62; Homo sapiens): 75.7%
